In this experiment the test system is oncostatin M. The experiment can be described thus: Oncostatin M binding assay (phthalate oil separation, Scatchard) on transfected COS-7 cells. The note with it: cells preincubated with non-radiolabeled LIF before 125I-oncostatin M (curve B). The text has this: Oncostatin M may be purified from cells in which the protein is naturally found, or from cells transformed with an expression vector encoding oncostatin M. One source of oncostatin M is phorbol ester-treated U937 cells, as described by Zarling et al., PNAS U.S.A. 83:9739 (1986). Purification of recombinant oncostatin M is described by Linsley et al., J. Biol. Chem. 264:4282-4289 (1989), which is hereby incorporated by reference in its entirety.
Oncostatin M may be radiolabeled using any suitable conventional procedure, such as the radioiodination procedure employed to radiolabel LIF in Example 1. The radio-iodination of oncostatin M has also been described by Linsley et al., supra.
The resulting radiolabeled oncostatin M may be substituted for radiolabeled LIF (using the same concentrations and other reaction parameters) in the assay procedures described in Example 1 in order to detect proteins and cells that bind oncostatin M. An assay for binding of ^125 I-oncostatin M to cells is also described in Linsley et al., supra.
COS-7 cells transfected with vector(s) encoding gp130 or LIF-R were assayed for the ability to bind oncostatin M. In separate transfections, COS-7 cells were transfected with the following combinations of vectors. […]

In the case of “gp130 and LIF-R: receptor of gp130 and LIF-R co-expressed on COS-7 cells co-transfected with vectors B10G and pHLIFR-65”, the “binding of oncostatin M after preincubation with LIF” value was “did not bind oncostatin M in any measurable amount above that bound by the non-transfected COS-7 cells”.

For the origin of these results see patent publication US5262522A, “Receptor for oncostatin M and leukemia inhibitory factor” (Immunex Corporation, priority 1991, dated 1993).
